# Measured values: US20090088380A1, “GHRH ANALOGS AND THERAPEUTIC USES THEREOF” (priority 2007, published 2009)
# Non-standard residues stand in square brackets, D forms with d. Residues, ends and D or L forms follow the SMILES beside them.
# Molecular target: T1, human GHRH receptor (Homo sapiens, UniProt Q02643)
# T1 construct: expressed in transfected cells; host or cells: BHK (baby hamster kidney) 570 cells, membrane preparations
# T1 sequence (Q02643 23-423): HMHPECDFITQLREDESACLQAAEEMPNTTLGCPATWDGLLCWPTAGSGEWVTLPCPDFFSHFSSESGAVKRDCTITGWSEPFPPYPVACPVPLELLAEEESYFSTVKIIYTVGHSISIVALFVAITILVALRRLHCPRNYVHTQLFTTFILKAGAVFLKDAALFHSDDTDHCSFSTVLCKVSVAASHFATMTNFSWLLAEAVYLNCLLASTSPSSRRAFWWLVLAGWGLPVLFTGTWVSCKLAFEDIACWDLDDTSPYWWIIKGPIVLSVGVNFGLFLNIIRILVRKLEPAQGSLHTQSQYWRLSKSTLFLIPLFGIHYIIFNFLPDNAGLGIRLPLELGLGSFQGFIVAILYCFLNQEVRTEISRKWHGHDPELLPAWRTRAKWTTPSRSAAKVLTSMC
# Test: 125I-GHRH competitive binding assay in BHK cell membrane preparations
# Details: in comparison with hGHRH(1-29)NH2, ratio IC50 hGHRH(1-29)-NH2/IC50 analog
# Description: Non specific binding was determined in presence of 1 μM hGHRH(1-29)NH2. Incubation was carried out at equilibrium (23° C., 60 min) and stopped by centrifugation (12,000 g, 5 min, at 4° C.). The radioactivity content in pellets was determined by gamma counting. The affinity of hGHRH(1-29) NH2 was tested in each experiment to assess the validity of the assay and determine the relative affinity of the analogs.
# Values represent the mean±SEM of 3 experiments performed in triplicate for the analogs and the mean±SEM of 2 experiments performed in triplicate for hGHRH(1-44) NH2.
# For the binding assay results presented in Tables 8 to 11, values represent the mean±SEM of 8 independent experiments performed in triplicate for the analogs and the mean±SEM of 4 experiments performed in triplicate for hGHRH(1-29)NH2. […] The relative affinity was obtained by taking the ratio IC50 of hGHRH (1-29)-NH2/IC50 analog.
compound,measurement,setting,value
"CC[C@H](C)[C@H](NC(=O)[C@H](C)NC(=O)[C@H](CC(=O)O)NC(=O)[C@@H](C)NC(=O)[C@@H](N)Cc1ccc(O)cc1)C(=O)N[C@@H](Cc1ccccc1)C(=O)N[C@H](C(=O)N[C@@H](CC(N)=O)C(=O)N[C@@H](CO)C(=O)N[C@H](Cc1ccc(O)cc1)C(=O)N[C@@H](CCCNC(=N)N)C(=O)N[C@@H](CCCCN)C(=O)N[C@H](C(=O)N[C@@H](CC(C)C)C(=O)N[C@H](C)C(=O)N[C@@H](CCC(N)=O)C(=O)N[C@@H](CC(C)C)C(=O)N[C@@H](CO)C(=O)N[C@@H](C)C(=O)N[C@@H](CCCNC(=N)N)C(=O)N[C@@H](CCCCN)C(=O)N[C@@H](CCCCN)C(=O)N[C@@H](CC(C)C)C(=O)N[C@@H](CCC(N)=O)C(=O)N[C@@H](CC(=O)O)C(=O)N[C@H](C(=O)N[C@@H](CCSC)C(=O)N[C@@H](CO)C(=O)N[C@@H](CCCNC(=N)N)C(N)=O)[C@@H](C)CC)C(C)C)[C@@H](C)O [GHRH analog #5, [D-Ala^2, D-Tyr^10, D-Ala^15, Lys^22] hGHRH(1-29)-NH2] (H-Y[dA]DAIFTNS[dY]RKVL[dA]QLSARKKLQDIMSR-NH2)",Relative binding affinity (R1) in hGHRH-R BHK-expressing cells,listed as 5,939 ± 249
same,Relative binding affinity (R1) in hGHRH-R BHK-expressing cells,listed as GHRH analog # 5,939 ± 249
same,Relative binding affinity (R1) in hGHRH-R BHK-expressing cells,listed as GHRH(1-29)NH2 synthetic analog,939
